Data reported in patent US11191762B2, “Alkyl substituted triazole compounds as agonists of the APJ Receptor” (priority 2016, dated 2021).
Read-outs that look alike come from different tables or passages of the source.

Target: human APJ receptor (Homo sapiens (Human), UniProt P35414)
Test: biochemical
Assay type: biochemical
Description: The human APJ receptor was cloned by polymerase chain reaction and the gene encoding the receptor was subcloned in pFLAG-CMV™-3 expression vector (Sigma, Saint Louis, Mo. USA) in-house at Amgen. A GTPγS binding assay was performed on membranes prepared from CHO cells stably expressing human APJ receptor. The optimum experimental conditions for the concentrations of GDP, MgCl2, and NaCl in the assay buffer were initially determined. The assay was performed in 9 μL assay buffer [20 mM HEPES, pH 7.5, 5 mM MgCl2, 100 mM NaCl and 0.1% (w/v) BSA], 1 μL of diluted test compound (starting with 0.75 mM, 2-fold serial dilution with DMSO, total 22 points), 10 μL of 18 µM GDP (final concentration of 3 μM GDP), 20 μL of […] membrane protein expressing human APJ receptor captured with WGA PS beads (final concentration of 5 μg per well), and 20 μL of 0.3 nM [^35S]GTPγS (final concentration is 0.1 nM [^35S]GTPγS)(Perkin Elmer Life and Analytical Sciences, Waltham USA).

[1] = read-out: Activity hAPJ SPA EC50 IP
[2] = [35S]GTPγS binding, membranes from CHO cells stably expressing human APJ receptor, read-out: Activity hAPJ SPA EC50 IP

Chain of human APJ receptor (P35414 whole entry): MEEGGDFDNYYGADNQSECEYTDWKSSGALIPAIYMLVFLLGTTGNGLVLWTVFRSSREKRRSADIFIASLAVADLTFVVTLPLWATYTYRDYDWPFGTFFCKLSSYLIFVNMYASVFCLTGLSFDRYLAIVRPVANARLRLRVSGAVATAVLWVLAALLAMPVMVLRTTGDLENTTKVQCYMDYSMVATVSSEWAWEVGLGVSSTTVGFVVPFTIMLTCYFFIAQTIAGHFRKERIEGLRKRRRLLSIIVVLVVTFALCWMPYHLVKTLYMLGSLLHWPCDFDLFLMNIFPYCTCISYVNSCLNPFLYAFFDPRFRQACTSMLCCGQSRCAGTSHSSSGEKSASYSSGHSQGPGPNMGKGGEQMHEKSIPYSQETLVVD

Compound	EC50 [2]	also measured
COc1cccc(OC)c1-n1c(COC(C)C)nnc1NS(=O)(=O)[C@@H](C)[C@H](C)c1ncc(Cl)cn1 [Example 161.0]		EC50 [1]: 2.2 nM
COc1cccc(OC)c1-n1c(NS(=O)(=O)[C@@H](C)[C@H](C)c2ncc(Cl)cn2)nnc1[C@@H](O)c1ccccc1 [Example 13.0, (2S,3R)-3-(5-chloro-2-pyrimidinyl)-N-(4-(2,6-dimethoxyphenyl)-5-((S)-hydroxy(phenyl)methyl)-4H-1,2,4-triazol-3-yl)-2-butanesulfonamide]	110 nM	
COc1cccc(OC)c1-n1c(COc2ccccc2)nnc1NS(=O)(=O)[C@@H](C)[C@H](OC)c1ncc(C)cn1 [Example 48.0, (1R,2S)—N-(4-(2,6-Dimethoxyphenyl)-5-(phenoxymethyl)-4H-1,2,4-triazol-3-yl)-1-methoxy-1-(5-methyl-2-pyrimidinyl)-2-propanesulfonamide]	440 nM	
CCCCc1nnc(NS(=O)(=O)[C@@H](C)[C@H](C)c2ncc(C)cn2)n1-c1c(OC)cccc1OC [Example 176.0]	1.9 nM	
COc1cccc(OC)c1-n1c(CN2CCCCCC2=O)nnc1NS(=O)(=O)[C@@H](C)[C@H](OC)c1ncc(C)cn1 [Example 52.0]	650 nM	
COCc1nnc(NS(=O)(=O)[C@@H](C)[C@@H](OC(C)C)c2ccc(C)cn2)n1-c1c(OC)cccc1OC [Example 155.0]	12 nM	
COc1cccc(OC)c1-n1c(Cc2ccncc2)nnc1NS(=O)(=O)[C@@H](C)[C@H](C)c1ncc(Cl)cn1 [Example 141.0, (2S,3R)-3-(5-Chloro-2-pyrimidinyl)-N-(4-(2,6-dimethoxyphenyl)-5-(4-pyridinylmethyl)-4H-1,2,4-triazol-3-yl)-2-butanesulfonamide]	100 nM	
COCc1nnc(NS(=O)(=O)[C@@H](C)[C@H](OC)c2ncc(Cl)cn2)n1-c1c(F)cccc1F [Example 131.0]	20 nM	
COc1cccc(OC)c1-n1c(Cc2ccccc2)nnc1NS(=O)(=O)[C@@H](C)[C@H](C)c1ncc(Cl)cn1 [Example 14.0, (2S,3R)-N-(5-benzyl-4-(2,6-dimethoxyphenyl)-4H-1,2,4-triazol-3-yl)-3-(5-chloro-2-pyrimidinyl)-2-butanesulfonamide]	4.6 nM	
COc1cccc(OC)c1-n1c(CS(C)(=O)=O)nnc1NS(=O)(=O)[C@@H](C)[C@H](C)c1ncc(Cl)cn1 [Example 37.0, (2S,3R)-3-(5-chloro-2-pyrimidinyl)-N-(4-(2,6-dimethoxyphenyl)-5-((methylsulfonyl)methyl)-4H-1,2,4-triazol-3-yl)-2-butanesulfonamide]	340 nM	
COc1cccc(OC)c1-n1c(Cc2ccc(F)cc2)nnc1NS(=O)(=O)[C@@H](C)[C@H](OC)c1ncc(C)cn1 [Example 50.0]	940 nM	
COc1cccc(OC)c1-n1c(Cc2ccncc2)nnc1NS(=O)(=O)[C@@H](C)[C@H](C)c1ncc(Cl)cn1 [Example 45.0, (2S,3R)-3-(5-chloro-2-pyrimidinyl)-N-(4-(2,6-dimethoxyphenyl)-5-(4-pyridinylmethyl)-4H-1,2,4-triazol-3-yl)-2-butanesulfonamide]	1.7 nM	
(1R,2S)-1-(5-chloro-2-pyrimidinyl)-N-(5-((1R)-1-cyclopropylethyl)-4-(4,6-dimethoxy-5-pyrimidinyl)-4H-1,2,4-triazol-3-yl)-1-methoxy-2-propanesulfonamide and (1R,2S)-1-(5-chloro-2-pyrimidinyl)-N-(5-((1S)-1-cyclopropylethyl)-4-(4,6-dimethoxy-5-pyrimidinyl)-4H-1,2,4-triazol-3-yl)-1-methoxy-2-propanesulfonamide [Example 167.0]	110 nM	
COCc1nnc(NS(=O)(=O)[C@@H](C)[C@H](OC)c2ncc(Cl)cn2)n1-c1ccccc1OC [Example 132.0]	11 nM	
COc1cccc(OC)c1-n1c(Cc2ccsc2)nnc1NS(=O)(=O)[C@@H](C)[C@H](C)c1ncc(Cl)cn1 [Example 38.0, (2S,3R)-3-(5-chloro-2-pyrimidinyl)-N-(4-(2,6-dimethoxyphenyl)-5-(3-thiophenylmethyl)-4H-1,2,4-triazol-3-yl)-2-butanesulfonamide]	6 nM	
COc1ccc(Cc2nnc(NS(=O)(=O)[C@@H](C)[C@H](OC)c3ncc(C)cn3)n2-c2c(OC)cccc2OC)cc1 [Example 49.0]	170 nM	

Compound	EC50 [2]	also measured
COc1cccc(OC)c1-n1c(NS(=O)(=O)[C@@H](C)[C@H](C)c2ncc(C)cn2)nnc1[C@@H](OC)c1ccccc1 [Example 19.0, (2S,3R)-N-(4-(2,6-dimethoxyphenyl)-5-((S)-methoxy(phenyl)methyl)-4H-1,2,4-triazol-3-yl)-3-(5-methyl-2-pyrimidinyl)-2-butanesulfonamide]	200 nM	
CC[C@@H](OC)c1nnc(NS(=O)(=O)[C@@H](C)[C@H](C)c2ncc(Cl)cn2)n1-c1c(OC)ncnc1OC (single isomer, unassigned) [Example 7.0, (2S,3R)-3-(5-chloro-2-pyrimidinyl)-N-(4-(4,6-dimethoxy-5-pyrimidinyl)-5-((1R)-1-methoxypropyl)-4H-1,2,4-triazol-3-yl)-2-butanesulfonamide or (2S,3R)-3-(5-chloro-2-pyrimidinyl)-N-(4-(4,6-dimethoxy-5-pyrimidinyl)-5-((1S)-1-methoxypropyl)-4H-1,2,4-triazol-3-yl)-2-butanesulfonamide]	360 nM	
[2H]C([2H])([2H])OCc1nnc(NS(=O)(=O)[C@@H](C)[C@@H](OC(C)C)c2ncc(C)cn2)n1-c1c(OC)cccc1OC [Example 152.0]		EC50: 6.1 nM
COc1cccc(OC)c1-n1c(NS(=O)(=O)[C@@H](C)[C@H](C)c2ncc(C)cn2)nnc1-c1cccc2c1CC(=O)N2 [Example 17.0, (2S,3R)-N-(4-(2,6-dimethoxyphenyl)-5-(2-oxoindolin-4-yl)-4H-1,2,4-triazol-3-yl)-3-(5-methylpyrimidin-2-yl)butane-2-sulfonamide]	350 nM	
COc1cccc(OC)c1-n1c(CN2CCCC2=O)nnc1NS(=O)(=O)[C@@H](C)[C@H](C)c1ncc(Cl)cn1 [Example 41.0, (2S,3R)-3-(5-chloro-2-pyrimidinyl)-N-(4-(2,6-dimethoxyphenyl)-5-((2-oxo-1-pyrrolidinyl)methyl)-4H-1,2,4-triazol-3-yl)-2-butanesulfonamide]	320 nM	
COc1ncnc(OC)c1-n1c(NS(=O)(=O)[C@@H](C)[C@H](C)c2ncc(Cl)cn2)nnc1[C@@H](C)OC (single isomer, unassigned) [Example 4.0, (2S,3R)-3-(5-chloro-2-pyrimidinyl)-N-(4-(4,6-dimethoxy-5-pyrimidinyl)-5-((1R)-1-methoxyethyl)-4H-1,2,4-triazol-3-yl)-2-butanesulfonamide or (2S,3R)-3-(5-chloro-2-pyrimidinyl)-N-(4-(4,6-dimethoxy-5-pyrimidinyl)-5-((1S)-1-methoxyethyl)-4H-1,2,4-triazol-3-yl)-2-butanesulfonamide]	270 nM	
COc1cccc(OC)c1-n1c(CCN(C)C)nnc1NS(=O)(=O)[C@@H](C)[C@H](OC)c1ncc(C)cn1 [Example 51.0]	520 nM	
COCc1nnc(NS(=O)(=O)[C@@H](C)[C@H](OC)c2ncc(Cl)cn2)n1C1(c2cccnc2)CC1 [Example 140.0, (1R,2S)-1-(5-chloropyrimidin-2-yl)-1-methoxy-N-(5-(methoxymethyl)-4-(1-(pyridin-3-yl)cyclopropyl)-4H-1,2,4-triazol-3-yl)propane-2-sulfonamide]	29 nM	
COc1cccc(OC)c1-n1c(CCN2CCN(C)CC2)nnc1NS(=O)(=O)[C@@H](C)[C@H](OC)c1ncc(C)cn1 [Example 53.0]	54 nM	
COCc1nnc(NS(=O)(=O)[C@@H](C)[C@H](OC)c2ncc(Cl)cn2)n1C1(COC)CC1 [Example 145.0]	240 nM	
CCCCc1nnc(NS(=O)(=O)[C@@H](C)[C@H](OC)c2ncc(Cl)cn2)n1-c1c(OC)cccc1OC [Example 174.0]		EC50 [1]: 0.3 nM
COCc1nnc(NS(=O)(=O)[C@@H](C)[C@H](OC)c2ncc(Cl)cn2)n1C(COC)COC [Example 124.0, (1R,2S)-1-(5-Chloro-2-pyrimidinyl)-N-(4-(1,3-dimethoxy-2-propanyl)-5-(methoxymethyl)-4H-1,2,4-triazol-3-yl)-1-methoxy-2-propanesulfonamide]	85 nM	
COc1cccc(OC)c1-n1c(NS(=O)(=O)[C@@H](C)[C@H](C)c2ncc(Cl)cn2)nnc1C(F)(F)c1ccccn1 [Example 136.0]	35 nM	
CCCCc1nnc(NS(=O)(=O)[C@@H](C)[C@H](OC)c2ncc(C)cn2)n1-c1c(OC)cccc1OC [Example 175.0]	1.7 nM	
COc1cccc(OC)c1-n1c(NS(=O)(=O)[C@@H](C)[C@H](C)c2ncc(C)cn2)nnc1-c1cccc2c1CC(=O)N2 [Example 16.0, (2S,3R)-N-(4-(2,6-dimethoxyphenyl)-5-(2-oxoindolin-4-yl)-4H-1,2,4-triazol-3-yl)-3-(5-methylpyrimidin-2-yl)butane-2-sulfonamide]	120 nM	
COc1ncnc(OC)c1-n1c(COC(F)F)nnc1NS(=O)(=O)[C@@H](C)[C@H](OC)c1ncc(Cl)cn1 [Example 128.0, (1R,2S)-1-(5-chloropyrimidin-2-yl)-N-(5-((difluoromethoxy)methyl)-4-(4,6-dimethoxypyrimidin-5-yl)-4H-1,2,4-triazol-3-yl)-1-methoxypropane-2-sulfonamide]	60 nM	
